pEC50, pIC50: −log10 of the molar value.
Experiments:
[1] = target: T1, human Werner helicase (WRN, Uniprot Q14191, amino acids 517-1235 with L1074F point mutation; WRN-BV08) (Homo sapiens, UniProt Q14191, L1074F); test: WRN (BV08) ADP-Glo assay; type: biochemical; conditions: WRN-BV08 (aa 517-1235, L1074F); read-out: ADP-Glo_hWRN_IC50
T1 construct: Uniprot Q14191, amino acids 517-1235 with L1074F point mutation; 8xHis (C, cleaved yes); TEV cleavage site (ENLYFQG) (C, cleaved yes); made in house; host or cells: Sf9 insect cells (baculovirus, pFastBac)
T1 sequence (Q14191 with tags, fused parts or gaps L1074F): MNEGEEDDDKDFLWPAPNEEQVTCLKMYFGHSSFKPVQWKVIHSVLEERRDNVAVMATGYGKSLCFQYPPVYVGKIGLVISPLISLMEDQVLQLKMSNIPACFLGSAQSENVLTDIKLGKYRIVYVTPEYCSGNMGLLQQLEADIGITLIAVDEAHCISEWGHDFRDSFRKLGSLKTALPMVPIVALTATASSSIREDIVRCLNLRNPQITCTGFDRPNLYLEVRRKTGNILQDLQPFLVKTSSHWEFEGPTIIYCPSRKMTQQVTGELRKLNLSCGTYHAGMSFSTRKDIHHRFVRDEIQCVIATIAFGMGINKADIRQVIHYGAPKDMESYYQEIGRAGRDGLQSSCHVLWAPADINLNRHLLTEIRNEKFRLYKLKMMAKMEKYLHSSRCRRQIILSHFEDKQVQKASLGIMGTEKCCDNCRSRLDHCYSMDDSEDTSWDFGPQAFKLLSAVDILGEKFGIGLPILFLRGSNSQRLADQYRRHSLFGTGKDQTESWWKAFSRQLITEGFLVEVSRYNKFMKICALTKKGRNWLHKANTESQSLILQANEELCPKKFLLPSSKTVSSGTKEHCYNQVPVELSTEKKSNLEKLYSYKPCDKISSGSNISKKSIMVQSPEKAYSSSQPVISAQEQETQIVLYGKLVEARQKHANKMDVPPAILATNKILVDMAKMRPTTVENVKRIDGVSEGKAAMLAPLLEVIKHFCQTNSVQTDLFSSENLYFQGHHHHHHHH
Method in brief: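 WRN 517-1235 (L1074F, untagged, Sf9-expressed), 0.15 nM, preincubated with compound 15 min at 25 °C, then 60 min with […] and 0.1 nM DNA duplex in Bicine pH 7.5, 1 mM MgCl2, 1% DMSO. ADP-Glo luminescence; % inhibition vs NSC-617145 control, four-parameter IC50 fit.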

[2] = system: p21 induction in HCT 116 cells; test: p21 induction in cells (In-Cell Western, p21/GAPDH ratio); type: cell-based; conditions: Homo sapiens, HCT-116, 24 h, 24 h compound incubation, read-out: P21_EC50
Method in brief: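 HCT 116 cells treated 24 h at 37° C with 11-point, 2-fold dilutions starting typically at 10 μM, in duplicate. Fixed cells immunostained for p21 and GAPDH; 800/700 nm ratio normalised between DMSO and reference WRN inhibitor controls as percent activation. EC50 from non-linear regression.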

SMILES | pIC50 [1] | pEC50 [2]
CCc1c(N2CCN(C(=O)c3ccccc3C(=O)O)[C@H]3CC[C@@H]32)c(=O)c2nn(-c3ccnc(OC)c3)nc2n1CC(=O)NC12CC(C(C)C)(C1)C2 [I-207, 2-((1S,6S)-5-(5-ethyl-4-(2-((3-isopropylbicyclo[1.1.1]pentan-1-yl)amino)-2-oxoethyl)-2-(2-methoxypyridin-4-yl)-7-oxo-4,7-dihydro-2H-[1,2,3]triazolo[4,5-b]pyridin-6-yl)-2,5-diazabicyclo[4.2.0]octane-2-carbonyl)benzoic acid] | 7.30 to 8.30 | < 5.30
CCc1c(N2CCN(C(=O)c3ncnc(C)c3O)[C@H]3CC[C@@H]32)c(=O)n2nc(-c3ccnc(OC)c3)nc2n1CC(=O)NC12CC(C3CC3)(C1)C2 [I-208, N-(3-cyclopropylbicyclo[1.1.1]pentan-1-yl)-2-(5-ethyl-6-((1S,6S)-5-(5-hydroxy-6-methylpyrimidine-4-carbonyl)-2,5-diazabicyclo[4.2.0]octan-2-yl)-2-(2-methoxypyridin-4-yl)-7-oxo-[1,2,4]triazolo[1,5-a]pyrimidin-4(7H)-yl)acetamide] | 7.30 to 8.30 | ≥ 6.30
CCc1c(N2CCN(C(=O)c3ncnc(C)c3O)[C@H]3CC[C@@H]32)c(=O)n2c(=O)n(-c3ccnc(OC)c3)nc2n1CC(=O)NC12CC(C3CC3)(C1)C2 [I-209, N-(3-cyclopropylbicyclo[1.1.1]pentan-1-yl)-2-(7-ethyl-6-((1S,6S)-5-(5-hydroxy-6-methylpyrimidine-4-carbonyl)-2,5-diazabicyclo[4.2.0]octan-2-yl)-2-(2-methoxypyridin-4-yl)-3,5-dioxo-2,3-dihydro-[1,2,4]triazolo[4,3-a]pyrimidin-8(5H)-yl)acetamide] | 7.30 to 8.30 | ≥ 6.30
CCc1c(N2CCN(C(=O)c3ncnc(C)c3O)[C@H]3CC[C@@H]32)c(=O)c2nc(C)c(C)nc2n1CC(=O)NC12CC(C3CCC3)(C1)C2 [I-210, N-(3-cyclobutylbicyclo[1.1.1]pentan-1-yl)-2-(6-ethyl-7-((1S,6S)-5-(5-hydroxy-6-methylpyrimidine-4-carbonyl)-2,5-diazabicyclo[4.2.0]octan-2-yl)-2,3-dimethyl-8-oxopyrido[2,3-b]pyrazin-5(8H)-yl)acetamide] | 7.30 to 8.30 | 5.70 to 6.30
CCc1c(N2CCN(C(=O)c3ncc4c(c3O)CCO4)CC2)c(=O)n2nc(C3=CCOCC3)nc2n1CC(=O)NC12CC(C3CCC3)(C1)C2 [I-211, N-(3-cyclobutylbicyclo[1.1.1]pentan-1-yl)-2-(2-(3,6-dihydro-2H-pyran-4-yl)-5-ethyl-6-(4-(4-hydroxy-2,3-dihydrofuro[2,3-c]pyridine-5-carbonyl)piperazin-1-yl)-7-oxo-[1,2,4]triazolo[1,5-a]pyrimidin-4(7H)-yl)acetamide] | 7.30 to 8.30 | 5.70 to 6.30
CCc1c(N2CCN(C(=O)c3ncnc(C)c3O)[C@H]3CC[C@@H]32)c(=O)c2cn(-c3ccnc(OC)c3)nc2n1CC(=O)NC12CC(C3CC3)(C1)C2 [I-212, N-(3-cyclopropylbicyclo[1.1.1]pentan-1-yl)-2-(6-ethyl-5-((1S,6S)-5-(5-hydroxy-6-methylpyrimidine-4-carbonyl)-2,5-diazabicyclo[4.2.0]octan-2-yl)-2-(2-methoxypyridin-4-yl)-4-oxo-2,4-dihydro-7H-pyrazolo[3,4-b]pyridin-7-yl)acetamide] | 7.30 to 8.30 | ≥ 6.30
CCc1c(N2CCN(C(=O)c3cccc4ncoc34)CC2)c(=O)n2nc(-c3ccnc(OC)c3)nc2n1CC(=O)NC12CC(C(C)C)(C1)C2 [I-213, 2-(6-(4-(benzo[d]oxazole-7-carbonyl)piperazin-1-yl)-5-ethyl-2-(2-methoxypyridin-4-yl)-7-oxo-[1,2,4]triazolo[1,5-a]pyrimidin-4(7H)-yl)-N-(3-isopropylbicyclo[1.1.1]pentan-1-yl)acetamide] | 7.30 to 8.30 | 5.70 to 6.30
CCc1c(N2CCN(C(=O)c3cccc4ncoc34)[C@H]3CC[C@@H]32)c(=O)n2nc(C3=CCOCC3)nc2n1CC(=O)NC12CC(C(C)C)(C1)C2 [I-214, 2-(6-((1S,6S)-5-(benzo[d]oxazole-7-carbonyl)-2,5-diazabicyclo[4.2.0]octan-2-yl)-2-(3,6-dihydro-2H-pyran-4-yl)-5-ethyl-7-oxo-[1,2,4]triazolo[1,5-a]pyrimidin-4(7H)-yl)-N-(3-isopropylbicyclo[1.1.1]pentan-1-yl)acetamide] | 7.30 to 8.30 | 5.70 to 6.30
CCc1c(N2CCN(C(=O)c3c(O)ccc4nc(C)oc34)CC2)c(=O)n2nc(-c3ccnc(OC)c3)nc2n1CC(=O)NC12CC(CC)(C1)C2 [I-215, 2-(5-ethyl-6-(4-(6-hydroxy-2-methylbenzo[d]oxazole-7-carbonyl)piperazin-1-yl)-2-(2-methoxypyridin-4-yl)-7-oxo-[1,2,4]triazolo[1,5-a]pyrimidin-4(7H)-yl)-N-(3-ethylbicyclo[1.1.1]pentan-1-yl)acetamide] | 7.30 to 8.30 | ≥ 6.30
CCc1c(N2CCN(C(=O)c3ncccc3C(=O)O)CC2)c(=O)c2nn(-c3ccnc(OC)c3)nc2n1CC(=O)NC12CC(C3CC3)(C1)C2 [I-216, 2-(4-(4-(2-((3-cyclopropylbicyclo[1.1.1]pentan-1-yl)amino)-2-oxoethyl)-5-ethyl-2-(2-methoxypyridin-4-yl)-7-oxo-4,7-dihydro-2H-[1,2,3]triazolo[4,5-b]pyridin-6-yl)piperazine-1-carbonyl)nicotinic acid] | 7.30 to 8.30 | < 5.30
CCc1c(N2CCN(C(=O)c3c(OC)ncc(C)c3O)CC2)c(=O)n2nc(-c3ccnc(C)c3)nc2n1CC(=O)NC12CC(C(C)C)(C1)C2 [I-217, 2-(5-ethyl-6-(4-(4-hydroxy-2-methoxy-5-methylnicotinoyl)piperazin-1-yl)-2-(2-methylpyridin-4-yl)-7-oxo-[1,2,4]triazolo[1,5-a]pyrimidin-4(7H)-yl)-N-(3-isopropylbicyclo[1.1.1]pentan-1-yl)acetamide] | 7.30 to 8.30 | ≥ 6.30
CCc1c(N2CCN(C(=O)c3c(O)ccc4ncoc34)[C@H]3CC[C@@H]32)c(=O)c2nc(N(C)C)cnc2n1CC(=O)NC12CC(C(C)C)(C1)C2 [I-218, 2-(2-(dimethylamino)-6-ethyl-7-((1S,6S)-5-(6-hydroxybenzo[d]oxazole-7-carbonyl)-2,5-diazabicyclo[4.2.0]octan-2-yl)-8-oxopyrido[2,3-b]pyrazin-5(8H)-yl)-N-(3-isopropylbicyclo[1.1.1]pentan-1-yl)acetamide] | 7.30 to 8.30 | 5.70 to 6.30
CCc1c(N2CCN(C(=O)c3ncnc(C)c3O)CC2)c(=O)n2nc(-c3ccncc3)nc2n1CC(=O)NC12CC(C3CCC3)(C1)C2 [I-219, N-(3-cyclobutylbicyclo[1.1.1]pentan-1-yl)-2-(5-ethyl-6-(4-(5-hydroxy-6-methylpyrimidine-4-carbonyl)piperazin-1-yl)-7-oxo-2-(pyridin-4-yl)-[1,2,4]triazolo[1,5-a]pyrimidin-4(7H)-yl)acetamide] | 7.30 to 8.30 | 5.70 to 6.30
CCc1c(N2CCN(C(=O)c3c(O)ccc4ncoc34)CC2)c(=O)n2nc(-c3ccnc(OC)c3)nc2n1CC(=O)NC12C3C4C1C1C2C3C41C(F)(F)F (stereo not shown) [I-220, 2-(5-ethyl-6-(4-(6-hydroxybenzo[d]oxazole-7-carbonyl)piperazin-1-yl)-2-(2-methoxypyridin-4-yl)-7-oxo-[1,2,4]triazolo[1,5-a]pyrimidin-4(7H)-yl)-N-(4-(trifluoromethyl)cuban-1-yl)acetamide] | 7.30 to 8.30 | 5.70 to 6.30
